From patent US20190307754A1, “PDE9 INHIBITORS FOR TREATMENT OF PERIPHERAL DISEASES” (IMARA, INC., priority 2016, published 2019)
Marks after values point to notes of the source that are not given here.

What was measured:
[1] = Plasma protein binding, mouse; assay type: in vitro ADME; details: read-out: mean plasma fraction bound (converted)
[2] = Pharmacokinetics of single oral and IV dose in CD1 mice; assay type: in vivo
Protocol: (§1) Blood samples were taken at 2 minutes (IV only), then 8, 15, 30 minutes, and 1, 2, 4, 8, and 24 hours after dosing and analyzed for key PK parameters. In the rats, brain samples were taken at 24 hours and analyzed for Compound P3.1. To evaluate the penetration of Compound P3.1 across the blood-brain barrier (BBB), 10 additional rats received IV Compound P3.1 3 mg/kg and plasma and brain concentrations of Compound P3.1 were determined from 2 animals at 15 minutes, 30 minutes and 1, 2, and 4 hours after dosing.

[3] = Plasma protein binding, monkey; assay type: in vitro ADME; details: read-out: mean plasma fraction bound (converted)
CYP2B6 = assay: CYP induction in human hepatocytes, CYP2B6
[4] = Blood Brain Barrier penetration (brain-to-plasma distribution); assay type: in vivo; details: male CD mice, 10 mg/kg subcutaneous
Protocol: Male CD mice (20-24 g) were housed pair-wise with free access to food and water for an acclimatization period of 3-7 days before initiation of experiments. Prior to dosing the animals were fasted overnight. During testing, mice were kept in individual cages. The brain-to-plasma distribution was assessed 30 minutes and 2 hours after subcutaneous administration of the test compound at a dose of 10 mg/kg (n=3 at each time point). The dose volume was 10 ml/kg using appropriate vehicle to solubilize each test compound. At the time of sampling, animals were anesthetized with isoflurane and a systemic blood sample collected by cardiac puncture into vacutainers containing sodium heparin as anti-coagulant. The blood was centrifuged at 3500 rpm for 10 minutes at 4° C. to obtain plasma. Following decapitation, brains were dissected out and transferred to pre-weighed vessels followed by tissue weights determination. Plasma and brains were stored at −80° C. until quantitative bioanalysis by LC-MS/MS. Results are expressed as ng/ml for plasma and ng/g for brain samples.

Han Wistar Rats = assay: Neurofunctional study in Han Wistar rats; assay type: in vivo, rat
Protocol: (§2) The safety pharmacology assessment of Compound P3.1 included an in vitro hERG assay, neurofunctional and respiratory studies in rats, and a cardiovascular study in beagle dogs.
Single oral doses of 250, 500, and 1000 mg/kg Compound P3.1 in Han Wistar Rats had no effect on clinical observations, home cage observations, handheld observations, or body temperatures.

CYP3A4 = assay: CYP induction, CYP3A4; assay type: in vitro ADME
[5] = Pharmacokinetics in mice and rats (statements for both species); assay type: in vivo; details: for half-life: read-out: elimination half-life (converted)
Protocol: The PK evaluation of Compound P3.1 included Absorption, Distribution, Metabolism, and Excretion (ADME) studies, as well as assessment for CYP enzyme inhibition.
as §1

[6] = test system: TNF-α activated human endothelial cells; assay: Micro-channel PMN adhesion assay under flow (FIG. 9); assay type: cell-based
From the text: In this study, the effects of Compound P3.1 on PMN adhesion to TNF-α activated human endothelial cell monolayers under flow conditions are investigated. It has been validated in vitro dynamic assay mimics neutrophil recruitment to endothelial cell monolayers under inflammatory conditions (TNF-α activation). In this assay, both control and sickle PMNs adhere to endothelial cells but to different degrees, reflecting in vivo conditions. The human dermal microvascular endothelial cell line HMEC-1 is used in this approach. The potential inhibitory effect of Compound P3.1 is tested in parallel and compared with the effect of HU and other PDE9 inhibitors.
In a first step, the effects of 1 uM Compound P3.1 and 10 uM HU were tested by incubating blood samples from healthy volunteers (n=3-6) (i.e., donors or donor cells) with these molecules.
Adhesion of PMNs from healthy volunteers was assessed under flow conditions, mimicking blood flow, in micro channels (Venaflux, Cellix, Ireland) coated with endothelial cell monolayers cultivated under inflammatory conditions. The adhesion assay was performed with whole fresh blood, previously incubated or not with Compound P3.1, to be closer to the physiological condition of circulation in a person, and to study the interaction between the different blood cells with PMNs.

PDE1 = PDE1 inhibition assay; assay type: biochemical
Protocol: Reactions were initiated by addition of the cyclic nucleotide substrate, and reactions were allowed to proceed for 1 h at room temperature before being terminated through mixing with 20 μL (0.2 mg) yttrium silicate SPA beads (PerkinElmer).

[7] = Stability study of drug substance (ambient and 40-45 °C); assay type: physicochemical; details: ambient temperature and 40° C.−45° C., 3-month period
Protocol: A stability study has been completed on Compound P3.1. Samples of Compound P3.1 were aliquoted into double-walled polyethylene pouches, which were tied off and then heat-sealed in an aluminum pouch. Samples were stored at ambient temperature and at 40° C.−45° C. (no humidity control) with testing performed over a 3-month period.

in vivo = assay type: in vivo; details: rat, in vivo, 1000 mg/kg; read-out: plasma exposure (AUC0-24)
From the text: as §2
(§3) The death was considered test article related. […]

rat = assay: in vivo; assay type: in vivo
From the text: as §2, §3

[8] = mouse, blood, CD1 mice, 3 mg/kg IV
[9] = mouse, blood, CD1 mice, 10 mg/kg oral

## C[C@@H]1CN(Cc2ncccn2)C[C@H]1c1cn2c(C3CCOCC3)ncc2c(=O)[nH]1 (single isomer, unassigned) [Compound P3.1]
[1]
  fraction unbound: 0.767
[2]; CD1, mouse, plasma, po, 10 mg/kg, read-out: oral bioavailability Flast
  bioavailability: 44.6%
[2]; CD1 mice, 3 mg/kg IV
  Cl_obs: 30.7 mL/min/kg
[2]; CD1 mice, 10 mg/kg oral
  Flast: 63.4%
  Vss obs: 63.4** L/kg
[2]; mice, 10 mg/kg oral
  continuously exposed out to: 4 h
[2]; [8]
  AUC(0-t): 1630 ng·h/mL
  C0: 4430 ng/mL
  MRT: 26.4 min
  half-life: 37.8 min
[2]; mouse, blood, CD1 mice, 3 mg/kg IV, read-out: Vss obs
  Vd: 0.89 L/kg
[2]; [9]
  AUC(0-t): 3440 ng·h/mL
  C0: 2750 ng/mL
  Tmax: 30 min
  half-life: 48.6 min
[3]
  fraction unbound: 0.814
CYP2B6
  induction of CYP2B6: no potential for induction
[4]; 30 min
  Plasma concentration after 30 minutes: 30 min.: 1620 ng/mL
[4]; 120 min
  Plasma concentration after 120 minutes: 120 min.: 226 ng/mL
[4]; mouse, brain, sc, 30 min, read-out: Brain/Plasma ratio after 30 minutes
  Kp at 0.5 h: 0.04
[4]; mouse, brain/plasma, sc, 120 min, read-out: Brain/Plasma ratio after 120 minutes
  Kp at 2 h: 0.03
Han Wistar Rats; >500 mg/kg, 0.5 and 24 hours post dosing
  adverse finding: increased incidence of no visible-approach response
Han Wistar Rats; single oral 250 mg/kg
  non-adverse findings at 250 mg/kg: transient decrease in sensory response (approach response)
Han Wistar Rats; single oral 500 and 1000 mg/kg
  non-adverse findings at 500 and 1000 mg/kg: decreases in body weight/weight gain, motor activity (number of rears), and sensory response (tail pinch response)
Han Wistar Rats; single oral doses of 250, 500, and 1000 mg/kg
  clinical, home cage, handheld observations, body temperatures: no effect
CYP3A4
  induction of CYP3A4: potential for induction
[5]; 10 mg/kg oral, both species
  plasma concentrations by 24 hours: below the lower limit of quantification (LLOQ)
[5]; CD1 (mouse), Sprague Dawley (rat), mouse, rat, plasma, 10 mg/kg, oral, mice and rats, read-out: time of maximum concentration (Tmax)
  Tmax: 30 to 60 min
[5]; CD1 (mouse), Sprague Dawley (rat), mouse, rat, plasma, oral, intravenous, mice and rats
  half-life: < 180 min
[5]; CD1 (mouse), Sprague Dawley (rat), mouse, rat, plasma, other: oral and intravenous (both routes), mice and rats
  half-life: ~180 min
[5]; IV, both species
  plasma concentration by 24 hours: below the LLOQ
[6]; 1 uM Compound P3.1, whole blood of healthy volunteers
  adhesion of low-binding donor cells: no effect
[6]; 1 uM Compound P3.1 or 10 uM HU, whole blood of healthy volunteers
  adhesion of high-binding donor cells: reduced the adhesion of 3 of 4 high-binding donors
PDE1
  IC50: 3 µM
[7]
  stability: appearance and purity of drug substance: no changes to appearance or purity
In vivo
  AUC(0-t): > 500000 ng·h/mL
rat; 1000 mg/kg, approximately 4.8 hours after dosing
  mortality: One male rat was found dead
rat; rat, in vivo
  exposure relative to anticipated efficacious dose: approximately 48 fold
rat; rat, in vivo, po, 1000 mg/kg
  respiratory functions: transient increases in respiratory rate and tidal volume
